Data reported in US6951727B2, “Methods and reagents for quantitation of cell-surface molecule expression on peripheral blood cells” (Becton Dickinson and Company, priority 1998, dated 2005).
Entries after “also recorded” stand apart in the source; their conditions may differ. Read-outs that look alike come from different tables or passages of the source.

Key:
[1] = system: monocyte HLA-DR expression; conditions: cited from earlier work
[2] = system: HLA-DR on CD14+ peripheral blood monocytes; experiment: Stabilization of HLA-DR-specific fluorescent signal during anti-HLA-DR antibody staining of whole blood, flow cytometry; assay type: cell-based, human
Procedure: Peripheral blood samples were drawn from normal volunteers.
The time-dependence of the HLA-DR-specific signal detectable by flow cytometry of antibody-stained peripheral blood monocytes was assessed by varying the duration of antibody staining.
The effect of various additives on the stability of HLA-DR-specific fluorescence intensity was tested by including these reagents during the staining step.
Incubation was at room temperature for the times indicated, after which 1 ml of 1× FACS™ Lysing Solution was added and incubation continued for 10 minutes.
Following erythrocyte lysis, the samples were centrifuged at 250×g for 5 minutes, the supernatant removed, the pellet resuspended in 2 ml of PBS+0.5% BSA and recentrifuged. The final pellet was suspended in 0.5 ml of PBS+BSA and analyzed by flow cytometry, as above. Results are plotted in FIG. 2A.
A second experiment, reported in FIG. 2B, was performed similarly, but omitting the post-lysis wash step: following erythrocyte lysis, the samples were centrifuged at 250×g for 5 minutes, the supernatant, containing lysis debris, removed, and the pellet resuspended directly in 0.5 ml of PBS+0.5% BSA. Again, flow cytometric acquisition of at least 2000 monocyte events was performed, and the PE fluorescence intensity of the monocyte population plotted.
To test whether Brefeldin A and monensin would similarly stabilize HLA-DR expression in the flow cytometric assay, an additional series of experiments was performed.
To 50 μl EDTA-anticoagulated whole blood was added 10 μl staining reagent (500 ng of HLA-DR-PE and 63 ng CD14-PerCP/CY5.5 in buffered saline containing gelatin and 0.1% sodium azide); the staining reagent further included the additives noted below. Samples were incubated with staining reagent for the times indicated, after which 1 ml of 1× FACS™ Lysing Solution was added. After incubation with lysing solution for 9.5 to 11.5 minutes, samples were directly analyzed using a FACSCalibur™ brand flow cytometer (BDIS, San Jose, Calif.).
Additives to the staining composition for this latter series of experiments, reported in FIG. 2C, were: (A) nothing (“Control”); (B) 18 mM chloroquine; (C) 0.2 mM Brefeldin A; and (D) 0.013 mM monensin. Final concentrations of additives after 1:6 dilution during staining were: (B) 3 mM chloroquine; (C) 0.034 mM Brefeldin A; and (D) 0.0022mM monensin. […] 212:89-98 (1998).
The data presented in FIG. 2C were acquired immediately after lysis; in contrast to experiments the results of which are presented in FIG. 1, the removal of lysis debris (by centrifugation and aspiration, optionally followed by wash) was omitted.
A further experiment was performed to determine the minimum concentration of chloroquine needed to effect stabilization of HLA-DR expression on the surface of monocytes.
An aliquot of 50 μl peripheral blood was drawn from a healthy volunteer and mixed with 10 μl HLA-DR quantitation reagent (50 μg/ml HLA-DR PE, 6.3 μg/ml CD14 PerCP-Cy5.5, in 10 mM sodium pyrophosphate, 0.15 M NaCl, pH 8). The HLA-DR quantitation reagent further contained chloroquine at 0 mM (control), 6 mM, 12 mM, or 18 mM.
In each experiment, 4 blood samples were stained for each chloroquine level, with one each of the samples stained for 20, 40, 60 or 80 minutes.
At the end of the staining period, the samples were lysed with 1× FACS™ Lysing Solution (BDIS) and analyzed on a FACScalibur Flow Cytometer. Five hundred monocyte events were collected.

[3] = system: CD11b on human blood cells; experiment: Stabilization of CD11b-specific fluorescent signal during antibody staining of whole blood, flow cytometry; assay type: cell-based; conditions: 3 mM final concentration, whole blood of three normal donors
Procedure: Blood from three normal adult donors was collected in standard EDTA Vacutainer® tubes and placed directly on ice. Fifty (50) μl of whole blood was transferred to a tube containing 20 μl of a cocktail of CD11b PE and CD45 PerCP antibodies with or without chloroquine, with the chloroquine-containing tubes having a final chloroquine concentration of 3 mM. Blood was stained for the indicated time at room temperature before addition of 1.0 ml FACS lysing reagent (1×). Flow cytometric analysis was performed essentially as described in Examples 1 and 2.

[4] = additive during staining, final concentration 3 mM chloroquine, 0.1% azide, 0.034 mM Brefeldin A, 0.0022 mM monensin, 10-15 to 60 min incubation

Gamma interferon: proinflammatory cytokine, major activator of monocytes
patients showing an increase in monocyte HLA-DR expression within 1 day of treatment ([1]; of 10 septic patients with fewer than 30% HLA-DR positive monocytes): 8 | patients responding within 2 to 3 days ([1]; of 10 septic patients): 2 | TNFα and IL-6 plasma levels during treatment ([1]; septic patients): significant increase

CC[C@@]1([C@@H]2O[C@@H]([C@H]3O[C@@](O)(CO)[C@H](C)C[C@@H]3C)C[C@@H]2C)CC[C@H]([C@]2(C)CC[C@]3(C[C@H](O)[C@@H](C)[C@@H]([C@@H](C)[C@@H](OC)[C@H](C)C(=O)O)O3)O2)O1 [monensin]
stabilization of HLA-DR fluorescence signal over incubation time [2, 4]: no significant stabilization

CCN(CCO)CCCC(C)Nc1ccnc2cc(Cl)ccc12 (stereo not shown) [hydroxychloroquine]
stabilizing HLA-DR signal compared with chloroquine ([2]; experiments not shown): equally effective

C[C@H]1CCC/C=C/[C@@H]2C[C@H](O)C[C@H]2[C@H](O)/C=C/C(=O)O1 [Brefeldin A]
stabilization of HLA-DR fluorescence signal over incubation time [2, 4]: no significant stabilization

CCN(CC)CCCC(C)Nc1ccnc2cc(Cl)ccc12 (stereo not shown) [chloroquine]
stabilization of CD11b fluorescent signal over staining time [3]: can similarly be stabilized | minimum concentration needed to effect HLA-DR stabilization [2]: 2 mM | stabilization of HLA-DR expression at 1 mM [2]: insufficient to effect stabilization | stabilization of HLA-DR fluorescence signal over incubation time [2]: reliably stabilized HLA-DR fluorescence; also recorded: stabilizes the HLA-DR fluorescence signal
